The values below come from US8871753B2, “Macrocyclic compounds and their use as kinase inhibitors” (Incyte Corporation, priority 2008, dated 2014).

What all share (type): biochemical
The target of experiment [1] is T1, human JAK1 (a.a. 837-1142) (Homo sapiens, UniProt P23458).
T1 construct: human JAK1 (a.a. 837-1142); His tag (N); made in house; host or cells: insect cells (baculovirus)
Kind of experiment: In vitro JAK kinase assay (HTRF, phosphorylation of a biotinylated peptide), JAK1. The conditions noted are these: read-out: JAK1 IC50. In short, it runs like this:
(§1)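 Phosphorylation of a biotinylated peptide by the JAK kinase domain, detected by HTRF with Eu-Py20 and SA-APC. ATP was 90 μM for JAK1, 30 μM for JAK2 and 3 μM for JAK3. Reactions ran 1 h at room temperature and were stopped with EDTA, followed by 40 min antibody binding.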
A general note: TR-FRET usually uses a lanthanide donor and a delayed reading to cut background.

Experiment [2] addresses T2, human JAK2 (a.a. 828-1132) (Homo sapiens, UniProt O60674).
T2 construct: JAK2 (a.a. 828-1132); His tag (N); made in house; host or cells: insect cells (baculovirus)
The experiment in a line: In vitro JAK kinase assay (HTRF, phosphorylation of a biotinylated peptide), JAK2. In outline:
as §1

Experiment [3] has as its target T3, human JAK3 (a.a. 781-1124) (Homo sapiens, UniProt P52333).
T3 construct: JAK3 (a.a. 781-1124); His tag (N); made in house; host or cells: insect cells (baculovirus)
Kind of experiment: In vitro JAK kinase assay (HTRF, phosphorylation of a biotinylated peptide), JAK3. In outline: as §1

Another experiment concerns the target TYK2 (Homo sapiens, UniProt P29597). Kind of experiment: TYK2 kinase inhibition (Table A1).
Experiment [4] has as its target T4, Recombinant Human Anaplastic Lymphoma Kinase (Homo sapiens, UniProt Q9UM73).
T4 construct: purchased Invitrogen, Carlsbad, Calif
Kind of experiment: ALK HTRF kinase assay. In short, it runs like this: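 Compounds were incubated with recombinant human ALK and a biotin-tagged peptide substrate. Product was captured with streptavidin-APC and probed with a europium anti-phosphotyrosine antibody, and plates were read for time-resolved fluorescence. Dose-response data were fitted to derive IC50.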

[5] abbreviates: compound at a concentration of 500 nM or 1 mM (not specified), cells shown as percentage.
Where [6] appears, read: method AA1 (90 μM ATP) or AA2 (1000 μM ATP), not stated per value.
[7] abbreviates: method AA1 (30 μM ATP) or AA2 (1000 μM ATP), not stated per value.
The mark [8] stands for this setting: method AA1 (3 μM ATP) or AA2 (1000 μM ATP), not stated per value.
The mark [9] stands for this setting: compound at 500 nM or 1 mM, 90 μM ATP.
Setting [10] is: Table B1, cells without percent sign.

pIC50: −log10 of the molar value. Where a name gives a salt, the structure may show the parent alone. Read-outs that look alike come from different tables or passages of the source.

T3 sequence (P52333 781-1124): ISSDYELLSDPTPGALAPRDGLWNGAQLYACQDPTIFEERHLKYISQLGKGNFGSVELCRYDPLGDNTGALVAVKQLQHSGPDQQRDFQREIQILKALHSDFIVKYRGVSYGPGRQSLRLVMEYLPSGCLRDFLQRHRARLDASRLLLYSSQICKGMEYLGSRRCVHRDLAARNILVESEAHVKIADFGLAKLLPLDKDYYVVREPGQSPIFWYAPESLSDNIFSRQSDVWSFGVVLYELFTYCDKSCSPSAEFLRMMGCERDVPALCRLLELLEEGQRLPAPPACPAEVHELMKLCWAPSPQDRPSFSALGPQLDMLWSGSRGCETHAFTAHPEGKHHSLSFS
T4 sequence (Q9UM73 19-1620): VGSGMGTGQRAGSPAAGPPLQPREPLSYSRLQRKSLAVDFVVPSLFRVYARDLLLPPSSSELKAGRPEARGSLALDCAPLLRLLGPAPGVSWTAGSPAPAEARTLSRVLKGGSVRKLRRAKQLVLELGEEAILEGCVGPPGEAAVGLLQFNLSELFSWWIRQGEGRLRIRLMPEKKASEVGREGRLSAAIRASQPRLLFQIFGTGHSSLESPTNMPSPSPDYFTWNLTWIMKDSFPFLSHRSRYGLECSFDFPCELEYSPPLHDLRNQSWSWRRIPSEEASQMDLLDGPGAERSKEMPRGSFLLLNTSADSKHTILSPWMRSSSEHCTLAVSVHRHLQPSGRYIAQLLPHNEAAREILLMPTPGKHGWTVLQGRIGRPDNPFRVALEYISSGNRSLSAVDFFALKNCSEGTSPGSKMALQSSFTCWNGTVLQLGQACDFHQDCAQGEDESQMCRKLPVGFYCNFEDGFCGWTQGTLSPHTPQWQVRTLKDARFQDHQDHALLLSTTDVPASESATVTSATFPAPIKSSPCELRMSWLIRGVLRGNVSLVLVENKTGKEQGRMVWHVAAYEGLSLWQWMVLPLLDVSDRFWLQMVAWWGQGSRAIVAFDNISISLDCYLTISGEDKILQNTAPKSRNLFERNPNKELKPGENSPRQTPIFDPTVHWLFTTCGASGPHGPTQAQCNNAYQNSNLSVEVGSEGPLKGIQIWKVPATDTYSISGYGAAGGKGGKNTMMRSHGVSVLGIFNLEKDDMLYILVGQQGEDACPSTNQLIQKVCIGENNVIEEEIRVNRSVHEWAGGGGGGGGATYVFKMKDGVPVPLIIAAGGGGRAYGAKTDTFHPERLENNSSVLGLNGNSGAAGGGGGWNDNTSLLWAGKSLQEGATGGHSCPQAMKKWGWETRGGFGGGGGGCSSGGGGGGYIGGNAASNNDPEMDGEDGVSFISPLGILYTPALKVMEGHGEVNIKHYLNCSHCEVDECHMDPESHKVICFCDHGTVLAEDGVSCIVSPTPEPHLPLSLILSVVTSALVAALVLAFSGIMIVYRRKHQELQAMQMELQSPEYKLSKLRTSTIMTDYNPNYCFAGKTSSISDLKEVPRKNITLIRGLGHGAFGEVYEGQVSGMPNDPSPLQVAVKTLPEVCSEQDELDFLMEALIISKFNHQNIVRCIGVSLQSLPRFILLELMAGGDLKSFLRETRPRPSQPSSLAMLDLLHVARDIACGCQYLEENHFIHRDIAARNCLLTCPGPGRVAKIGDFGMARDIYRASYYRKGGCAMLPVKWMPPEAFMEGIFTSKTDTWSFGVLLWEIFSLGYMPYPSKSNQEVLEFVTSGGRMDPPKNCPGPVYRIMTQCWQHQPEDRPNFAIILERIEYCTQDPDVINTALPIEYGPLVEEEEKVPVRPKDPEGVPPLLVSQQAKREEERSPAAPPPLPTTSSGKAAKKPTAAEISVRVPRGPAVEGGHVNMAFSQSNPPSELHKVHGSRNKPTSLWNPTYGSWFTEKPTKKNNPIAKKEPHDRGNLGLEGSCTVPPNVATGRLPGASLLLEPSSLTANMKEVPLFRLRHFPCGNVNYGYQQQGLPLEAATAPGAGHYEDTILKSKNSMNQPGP
Sequence of TYK2 (P29597 whole entry): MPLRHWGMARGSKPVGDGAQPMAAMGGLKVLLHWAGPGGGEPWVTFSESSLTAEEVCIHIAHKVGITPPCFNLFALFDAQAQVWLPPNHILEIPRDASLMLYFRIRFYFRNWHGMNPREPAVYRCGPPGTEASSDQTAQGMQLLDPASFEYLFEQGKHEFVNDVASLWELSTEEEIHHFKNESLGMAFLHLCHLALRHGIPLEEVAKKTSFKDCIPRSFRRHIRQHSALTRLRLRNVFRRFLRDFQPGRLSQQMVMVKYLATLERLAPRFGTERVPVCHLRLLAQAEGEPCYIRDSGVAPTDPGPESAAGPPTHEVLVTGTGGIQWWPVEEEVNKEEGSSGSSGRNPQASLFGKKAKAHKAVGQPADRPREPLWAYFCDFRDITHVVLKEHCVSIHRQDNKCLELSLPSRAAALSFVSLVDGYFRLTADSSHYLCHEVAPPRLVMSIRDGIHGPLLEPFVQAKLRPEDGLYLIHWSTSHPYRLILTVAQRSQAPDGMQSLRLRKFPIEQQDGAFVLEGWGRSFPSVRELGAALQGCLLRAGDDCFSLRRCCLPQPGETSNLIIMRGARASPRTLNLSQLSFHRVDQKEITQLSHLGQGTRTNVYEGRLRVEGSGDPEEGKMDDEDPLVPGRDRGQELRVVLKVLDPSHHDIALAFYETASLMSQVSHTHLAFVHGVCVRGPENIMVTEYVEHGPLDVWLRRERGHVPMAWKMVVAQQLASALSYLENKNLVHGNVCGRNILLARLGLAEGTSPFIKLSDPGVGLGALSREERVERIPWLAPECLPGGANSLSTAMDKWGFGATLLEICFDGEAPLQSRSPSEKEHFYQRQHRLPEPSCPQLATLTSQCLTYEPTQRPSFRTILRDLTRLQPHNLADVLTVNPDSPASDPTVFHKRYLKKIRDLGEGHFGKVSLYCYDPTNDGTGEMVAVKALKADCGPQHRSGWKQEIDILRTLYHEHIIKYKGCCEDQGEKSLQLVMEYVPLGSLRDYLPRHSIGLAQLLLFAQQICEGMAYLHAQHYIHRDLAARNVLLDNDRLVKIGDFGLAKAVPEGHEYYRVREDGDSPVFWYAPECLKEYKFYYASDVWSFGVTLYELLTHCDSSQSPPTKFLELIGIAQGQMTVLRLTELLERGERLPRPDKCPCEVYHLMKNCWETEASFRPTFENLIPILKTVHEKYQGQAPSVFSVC
T1 sequence (P23458 849-1154): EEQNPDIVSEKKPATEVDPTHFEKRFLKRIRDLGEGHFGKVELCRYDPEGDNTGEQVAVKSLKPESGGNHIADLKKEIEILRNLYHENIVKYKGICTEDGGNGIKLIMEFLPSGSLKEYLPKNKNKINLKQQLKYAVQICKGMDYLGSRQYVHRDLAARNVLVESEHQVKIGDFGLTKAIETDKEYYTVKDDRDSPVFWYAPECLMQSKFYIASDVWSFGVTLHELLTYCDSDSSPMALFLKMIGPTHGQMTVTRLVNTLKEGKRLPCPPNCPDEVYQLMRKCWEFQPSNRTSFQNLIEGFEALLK
T2 sequence (O60674 828-1132): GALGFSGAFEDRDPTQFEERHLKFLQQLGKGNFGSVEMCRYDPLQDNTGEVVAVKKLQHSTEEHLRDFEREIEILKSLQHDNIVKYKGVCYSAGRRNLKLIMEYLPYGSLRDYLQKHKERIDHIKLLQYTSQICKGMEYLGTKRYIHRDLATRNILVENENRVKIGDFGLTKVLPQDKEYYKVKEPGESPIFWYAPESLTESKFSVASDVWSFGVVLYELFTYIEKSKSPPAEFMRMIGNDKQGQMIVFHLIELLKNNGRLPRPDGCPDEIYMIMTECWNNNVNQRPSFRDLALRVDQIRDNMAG

`O=S1(=O)Nc2cccc(c2)Nc2nc(ncc2Cl)Nc2cccc1c2` [Example C6, 6-Chloro-15-thia-2,4,8,14,22-pentaazatetracyclo[14.3.1.1(3,7).1(9,13)]docosa-1(20),3(22),4,6,9(21),10,12,16,18-nonaene 15,15-dioxide trifluoroacetate]: the pIC50 (in general, the IC50 on a negative log10 scale, so that one unit is a factor of ten) is 6.66 in experiment [1]; 7.15 in experiment [2]; 6.42 in experiment [3]; 6.62 at TYK2; less than 5.00 in experiment [4].
Turning to `Cn1ccc2c(NC(=O)Nc3ccc4cc3CCc3cccc(c3)Nc3ncc(Cl)c(n3)N4)cccc21` [Example B125, N-[6-Chloro-2,4,8,22-tetraazatetracyclo[14.3.1.1(3,7).1(9,13)]docosa-1(20), 3(22),4,6,9(21),10,12,16,18-nonaen-12-yl]-N′-(1-methyl-1H-indol-4-yl)urea trifluoroacetate], the pIC50 in experiment [1] (Table B1) was 8.55; in experiment [2] (Table B1) it was 8.00; in experiment [3] (Table B1) it was 7.12; against TYK2 (Table B1) it was 7.52. The “ALK % of inhibition at a concentration of 500 nM or 1 mM” value (from here on “ALK % of inhibition”) in experiment [4] (setting [5]) turned out to be 34%.
Regarding `Cc1csc(NC(=O)Nc2ccc3cc2CCc2cccc(c2)Nc2ncc(Cl)c(n2)N3)c1` [Example B120, N-[6-Chloro-2,4,8,22-tetraazatetracyclo[14.3.1.1(3,7).1(9,13)]docosa-1(20), 3(22),4,6,9(21),10,12,16,18-nonaen-12-yl]-N′-(4-methyl-2-thienyl)urea trifluoroacetate], the pIC50 in experiment [1] (Table B1) was 8.17; in experiment [2] (Table B1) it was 8.10; in experiment [3] (Table B1), 7.17; against TYK2 (Table B1) it was 7.60. Besides, in experiment [4] (setting [5]), the “ALK % of inhibition” value worked out at 16%.
Regarding `CC(=O)N1CC[C@@H](C(=O)Nc2ccc3cc2CCc2cccc(c2)Nc2ncc(Cl)c(n2)N3)C1` [Example A51, (3R)-1-Acetyl-N-[6-chloro-2,4,8,22-tetraazatetracyclo[14.3.1.1(3,7).1(9,13)]docosa-1(20),3(22),4,6,9(21),10,12,16,18-nonaen-12-yl]pyrrolidine-3-carboxamide trifluoroacetate], the pIC50 is 7.89 in experiment [1] (setting [6]), 8.30 in experiment [2] (setting [7]), 8.00 in experiment [3] (setting [8]) and 7.68 against TYK2. Also, the “ALK % of inhibition” value in experiment [4] (setting [9]) is given as 30%.
For `O=C(CC1CCN(C(=O)c2cnon2)CC1)Nc1ccc2cc1CCc1cncc(c1)Nc1ncc(Cl)c(n1)N2` [Example A138, N-[6-Chloro-2,4,8,18,22-pentaazatetracyclo[14.3.1.1(3,7).1(9,13)]docosa-1(20),3(22),4,6,9(21),10,12,16,18-nonaen-12-yl]-2-[1-(1,2,5-oxadiazol-3-ylcarbonyl)piperidin-4-yl]acetamide bis(trifluoroacetate)], in that order: 8.70, 8.14, 7.52, 8.10 and 46%.
In the case of `O=C(CC1CCN(c2ncco2)CC1)Nc1ccc2cc1CCc1cncc(c1)Nc1ncc(Cl)c(n1)N2` [Example A246, N-[6-Chloro-2,4,8,18,22-pentaazatetracyclo[14.3.1.1(3,7).1(9,13)]docosa-1(20),3(22),4,6,9(21),10,12,16,18-nonaen-12-yl]-2-[1-(1,3-oxazol-2-yl)piperidin-4-yl]acetamide tris(trifluoroacetate)], the pIC50 in experiment [1] (setting [6]) was 7.82; in experiment [2] (setting [7]) it was 6.92; in experiment [3] (setting [8]), less than 6.70; against TYK2, less than 6.70. For the same compound, in experiment [4] (setting [9]), the “ALK % of inhibition” value turned out to be 39%.
Take `Cc1cnc2nc1Nc1cccc(c1)/C=C\c1cccc(c1)N2` [Example B1, (14Z)-6-Methyl-2,4,8,22-tetraazatetracyclo[14.3.1.1(3,7).1(9,13)]docosa-1(20),3(22),4,6,9(21),10,12,14,16,18-decaene trifluoroacetate]: the pIC50 in experiment [1] (Table B1) is 7.96; in experiment [2] (Table B1), 8.29; in experiment [3] (Table B1) it was less than 7.00; against TYK2 (Table B1), 7.77; in experiment [4] (setting [10]), 6.10.
With `N#Cc1ccccc1S(=O)(=O)N1CCC(CC(=O)Nc2ccc3cc2CCc2cccc(c2)Nc2ncc(Cl)c(n2)N3)CC1` [Example A208, N-[6-Chloro-2,4,8,22-tetraazatetracyclo[14.3.1.1(3,7).1(9,13)]docosa-1(20),3(22),4,6,9(21),10,12,16,18-nonaen-12-yl]-2-{1-[(2-cyanophenyl)sulfonyl]piperidin-4-yl}acetamide trifluoroacetate], the pIC50 in experiment [1] (setting [6]) was 8.80; in experiment [2] (setting [7]) it was 7.39; in experiment [3] (setting [8]) it was less than 6.70; at TYK2, 6.82. The “ALK % of inhibition” value in experiment [4] (setting [9]) was determined as 17%.
For `CC(=O)N1CCCC(C(=O)Nc2ccc3cc2CCc2cccc(c2)Nc2ncc(Cl)c(n2)N3)C1` (stereo not drawn) [Example A47, 1-Acetyl-N-[6-chloro-2,4,8,22-tetraazatetracyclo[14.3.1.1(3,7).1(9,13)]docosa-1(20),3(22),4,6,9(21),10,12,16,18-nonaen-12-yl]piperidine-3-carboxamide trifluoroacetate], in that order: 7.77, 8.16, 7.60, 7.41 and 26%.
With `CC(C)S(=O)(=O)Nc1ccc2cc1CCc1cccc(c1)Nc1ncc(Cl)c(n1)N2` [Example B143, N-[6-Chloro-2,4,8,22-tetraazatetracyclo[14.3.1.1(3,7).1(9,13)]docosa-1(20), 3(22),4,6,9(21),10,12,16,18-nonaen-12-yl]propane-2-sulfonamide trifluoroacetate], the pIC50 in experiment [1] (Table B1) is 7.96; in experiment [2] (Table B1) it was 8.55; in experiment [3] (Table B1), 6.98; at TYK2 (Table B1) it was 7.89; in experiment [4] (setting [10]), less than 6.00.
Regarding `CC(CO)NC(=O)Nc1ccc2cc1CCc1cccc(c1)Nc1ncc(Cl)c(n1)N2` (stereo not drawn) [Example B242, N-[6-Chloro-2,4,8,22-tetraazatetracyclo[14.3.1.1(3,7).1(9,13)]docosa-1(20),3(22),4,6,9(21),10,12,16,18-nonaen-12-yl]-N′-(2-hydroxy-1-methylethyl)urea trifluoroacetate], the pIC50 in experiment [1] (Table B1) is 8.55; in experiment [2] (Table B1), 8.70; in experiment [3] (Table B1), 7.92; on TYK2 (Table B1), 8.16. Further, in experiment [4] (setting [5]), the “ALK % of inhibition” value is 16%.
For the compound `CC(=O)N1CC[C@@H](NC(=O)Nc2ccc3cc2CCc2cccc(c2)Nc2ncc(Cl)c(n2)N3)C1` [Example B177, N-[(3R)-1-Acetylpyrrolidin-3-yl]-N′-[6-chloro-2,4,8,22-tetraazatetracyclo[14.3.1.1(3,7).1(9,13)]docosa-1(20),3(22),4,6,9(21),10,12,16,18-nonaen-12-yl]urea trifluoroacetate], the pIC50 is 8.51 in experiment [1] (Table B1), 8.27 in experiment [2] (Table B1), 7.34 in experiment [3] (Table B1) and 7.41 on TYK2 (Table B1). Moreover, the “ALK % of inhibition” value in experiment [4] (setting [5]) is 20%.
As to `CC(C)c1cc(C(=O)N2CCC(CC(=O)Nc3ccc4cc3CCc3cncc(c3)Nc3ncc(Cl)c(n3)N4)CC2)no1` [Example A214, N-[6-Chloro-2,4,8,18,22-pentaazatetracyclo[14.3.1.1(3,7).1(9,13)]docosa-1(20),3(22),4,6,9(21),10,12,16,18-nonaen-12-yl]-2-{1-[(5-isopropylisoxazol-3-yl)carbonyl]piperidin-4-yl}acetamide bis(trifluoroacetate)], the pIC50 was 7.30 in experiment [1] (setting [6]), less than 6.70 in experiment [2] (setting [7]), less than 6.70 in experiment [3] (setting [8]) and less than 6.70 against TYK2. For the same compound, the “ALK % of inhibition” value in experiment [4] (setting [9]) was 15%.
`NS(=O)(=O)N1CCC(NC(=O)Nc2ccc3cc2CCc2cccc(c2)Nc2ncc(Cl)c(n2)N3)CC1` [Example B183, 4-[({[6-Chloro-2,4,8,22-tetraazatetracyclo[14.3.1.1(3,7).1(9,13)]docosa-1(20),3(22),4,6,9(21),10,12,16,18-nonaen-12-yl]amino}carbonyl)amino]piperidine-1-sulfonamide trifluoroacetate]: the pIC50 in experiment [1] (Table B1) was 8.68; in experiment [2] (Table B1), 9.00; in experiment [3] (Table B1), 7.85; on TYK2 (Table B1), 8.15. For the same compound, the “ALK % of inhibition” value in experiment [4] (setting [5]) is reported as 26%.
In the case of `O=C(CCC1CCNCC1)Nc1ccc2cc1CCc1cncc(c1)Nc1ncc(Cl)c(n1)N2` [Example A117, N-[6-Chloro-2,4,8,18,22-pentaaazatetracyclo[14.3.1.1(3,7).1(9,13)]docosa-1(20),3(22),4,6,9(21),10,12,16,18-nonaen-12-yl]-3piperidin-4-ylpropanamide tris(trifluoroacetate)], the pIC50 in experiment [1] (setting [6]) was 8.00; in experiment [2] (setting [7]) it was 7.54; in experiment [3] (setting [8]) it was 6.80; on TYK2, 7.36. Further, the “ALK % of inhibition” value in experiment [4] (setting [9]) amounted to 25%.
